From ChEMBL document CHEMBL1201862, “PubChem BioAssay data set” (2004) come the findings set out here.

Some test systems named below: A498; ACHN; EKVX; HCT-116; HL-60; LXFL 529; Malme-3M; OVCAR-3; OVCAR-4; OVCAR-8; SF-268; SF-295; SF-539; SN12C; SNB-19; U-251; HCC 2998; MCF7; MDA-MB-231; MDA-N.
Holding throughout (assay): NCI-60 cell line screen, 48 h

Structures are written as SMILES.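 Five compound concentrations were applied to cells in 96-well plates for 48 hours; endpoints were derived by simple linear interpolation of the resulting dose-response curve. Here, GI50 denotes the concentration required for 50% inhibition of growth.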 The source made the active and inactive calls. Cut-off read from the data, not from the text of the source: active = GI50 up to about 1.1 µM and inactive = higher.

In the case of `COC(=O)CCc1cccnc1/C=N/O`, the GI50 with A498, in the test on ACHN, in the test with EKVX, with HCT-116, with HL-60 and with LXFL 529 was > 100 µM (inactive) in each case. Further, the GI50 in the test on Malme-3M, in the test with OVCAR-3, in the test on OVCAR-4, in the test with OVCAR-8, in the test with SF-268 and with SF-295 was > 100 µM (inactive) each time. The GI50 with SF-539, with SN12C, in the test with SNB-19 and in the test on U-251 was > 100 µM (inactive) throughout.

`CC12CCC(C)(c3cc(O)c(O)cc31)c1cc(O)c(O)cc12`: the GI50 was 16.1 µM (inactive) in the test on ACHN; 25.1 µM (inactive) in the test on EKVX; 17.5 µM (inactive) in the test with HCC 2998; 3.38 µM (inactive) with HL-60; 8.47 µM (inactive) with LXFL 529; 18.3 µM (inactive) with Malme-3M. Also, the GI50 with OVCAR-3 was 17.8 µM (inactive); in the test on OVCAR-4, 14.6 µM (inactive); in the test on OVCAR-8 it was 19.7 µM (inactive); with SF-268 it was 18.2 µM (inactive); in the test with SF-295, 22 µM (inactive); with SN12C, 21.8 µM (inactive). Also, the GI50 with SNB-19 was 15.5 µM (inactive).

With `O=C(Nc1ccccc1)O/N=C1/CCCC/C1=C\c1ccccc1`, the GI50 with A498 is 23.2 µM (inactive); with ACHN, 16.4 µM (inactive); in the test with HCC 2998 it was 20.6 µM (inactive); with HCT-116 it was 13.7 µM (inactive); with LXFL 529, 8.49 µM (inactive); in the test on OVCAR-3 it was 15.2 µM (inactive). Besides, the GI50 with OVCAR-4 is 14.8 µM (inactive); in the test on OVCAR-8 it was 18.1 µM (inactive); in the test on SF-268, 15.6 µM (inactive); with SF-295 it was 16.1 µM (inactive); in the test with SF-539, 17.7 µM (inactive); in the test with SN12C, 16.3 µM (inactive). Moreover, in the test with U-251, the GI50 was 16.2 µM (inactive).

As for `O=C1CCCCC/C=C2/CC[C@H](Sc3ccccc3)[C@@H]12`, the GI50 is 42.5 µM (inactive) with ACHN; 38.3 µM (inactive) with EKVX; 52.4 µM (inactive) in the test on HCT-116; 52.1 µM (inactive) in the test on HL-60; > 100 µM (inactive) in the test on LXFL 529; > 100 µM (inactive) in the test with Malme-3M. In addition, the GI50 is > 100 µM (inactive) in the test on OVCAR-4; 74.1 µM (inactive) with OVCAR-8; 88.5 µM (inactive) in the test with SF-268; 40.6 µM (inactive) with SF-295; > 100 µM (inactive) in the test on SN12C; 73.8 µM (inactive) in the test with SNB-19. In addition, in the test on U-251, the GI50 was 80.7 µM (inactive).

Regarding `Cn1nc(-c2ccccc2)c(C(=O)/C=C/c2ccc(Cl)cc2)c(N2CCCCC2)c1=O`, the GI50 is 1.92 µM (inactive) with ACHN; 3.85 µM (inactive) with EKVX; 1.81 µM (inactive) in the test with HCT-116; 1.82 µM (inactive) with HL-60; 1.8 µM (inactive) with LXFL 529; 3.8 µM (inactive) in the test with OVCAR-8. Moreover, the GI50 is 2 µM (inactive) in the test on SF-268; 0.719 µM (active) in the test on SF-295; 1.61 µM (inactive) with SF-539; 3.53 µM (inactive) with SN12C; 2.14 µM (inactive) with SNB-19; 1.86 µM (inactive) with U-251.

Consider `Cc1c(C(=O)/C=C/c2ccccc2Cl)[n+]([O-])c2ccccc2[n+]1[O-]`, for which the GI50 with A498 was 14 µM (inactive); in the test with ACHN, 17.2 µM (inactive); in the test with EKVX, 17.3 µM (inactive); in the test on HCT-116, 10.6 µM (inactive); in the test on HL-60, 12.3 µM (inactive); with LXFL 529, 7.08 µM (inactive). The GI50 in the test on Malme-3M is 15.6 µM (inactive); in the test on OVCAR-3, 15.9 µM (inactive); with OVCAR-4, 12.1 µM (inactive); in the test with OVCAR-8, 13.3 µM (inactive); in the test with SF-295, 14.7 µM (inactive); with SF-539 it was 15.9 µM (inactive). In addition, the GI50 in the test on SN12C was 15.1 µM (inactive); in the test on SNB-19 it was 17.3 µM (inactive); with U-251 it was 14.3 µM (inactive).

Consider `CC(=O)OC1/C(=C/c2ccc([N+](=O)[O-])cc2)C[C@H]2[C@@H]3CC=C4C[C@@H](OC(C)=O)CC[C@]4(C)[C@H]3CC[C@]12C` (stereo not given in full), for which the GI50 is > 52.6 µM (inactive) in the test with A498; 99.8 µM (inactive) in the test with ACHN; > 85.7 µM (inactive) with EKVX; > 100 µM (inactive) in the test on HCC 2998; > 100 µM (inactive) in the test with HCT-116; 2.61 µM (inactive) in the test on HL-60. The GI50 in the test with MCF7 is > 100 µM (inactive); in the test on MDA-MB-231, 58.3 µM (inactive); in the test with MDA-N, > 100 µM (inactive); in the test with Malme-3M it was > 100 µM (inactive); in the test on OVCAR-3, > 100 µM (inactive); with OVCAR-4, > 96.4 µM (inactive). The GI50 was > 100 µM (inactive) in the test on OVCAR-8; 51.4 µM (inactive) in the test with SF-268; > 73.6 µM (inactive) with SF-295; 59.6 µM (inactive) in the test on SF-539; > 100 µM (inactive) with SN12C; > 72.4 µM (inactive) with SNB-19. The GI50 in the test with U-251 is 46 µM (inactive).

For the molecule `[N-]=[N+]=NC(CI)c1cn([C@H]2C[C@H](O)[C@@H](CO)O2)c(=O)[nH]c1=O` (stereo not given in full), the GI50 with ACHN was > 100 µM (inactive); in the test with EKVX, > 100 µM (inactive); with HCC 2998 it was 85.1 µM (inactive); in the test on HCT-116, > 100 µM (inactive); in the test with HL-60, 54.1 µM (inactive); with LXFL 529, > 100 µM (inactive). For the same molecule, the GI50 in the test on Malme-3M, in the test on OVCAR-3, in the test with OVCAR-8, in the test on SF-295, in the test with SF-539 and in the test with SN12C was > 100 µM (inactive) throughout. For the same molecule, the GI50 with SNB-19 and in the test with U-251 was > 100 µM (inactive) throughout.

Turning to `COc1ccc(-c2cc(O)c3cc4c(cc3n2)OCO4)c(OC)c1`, the GI50 is 37.1 µM (inactive) with ACHN; 82.4 µM (inactive) in the test on EKVX; 50.7 µM (inactive) with HCC 2998; 20 µM (inactive) in the test on HL-60; 45.7 µM (inactive) in the test with LXFL 529; 25.2 µM (inactive) with Malme-3M. In addition, the GI50 with OVCAR-4 is 71.1 µM (inactive); in the test with OVCAR-8, 96.6 µM (inactive); with SF-539, 51.3 µM (inactive); with SN12C, 59.6 µM (inactive); with SNB-19 it was 67.6 µM (inactive); in the test with U-251, 59.4 µM (inactive).

Turning to `CC(=O)OC1CC2C(=O)CC1(C)C2(C)C` (stereo not given), the GI50 in the test on A498, with ACHN, in the test with EKVX, in the test on HCC 2998, in the test on HCT-116 and in the test on HL-60 was > 100 µM (inactive) in each case. The GI50 with MCF7, in the test with MDA-MB-231, with MDA-N, in the test with Malme-3M, with OVCAR-3 and with OVCAR-4 was > 100 µM (inactive) throughout. For the same molecule, the GI50 in the test on OVCAR-8, with SF-268, with SF-295, in the test on SF-539, in the test on SN12C and in the test with SNB-19 was > 100 µM (inactive) each time. Also, the GI50 with U-251 was > 100 µM (inactive).

With `COc1ccc2cc(C(C)C(=O)N3CCOC3=O)ccc2c1` (stereo not given), the GI50 is 71.4 µM (inactive) in the test with A498; > 100 µM (inactive) in the test on ACHN; > 100 µM (inactive) in the test with EKVX; > 100 µM (inactive) in the test on HCC 2998; > 100 µM (inactive) in the test on HCT-116; > 100 µM (inactive) in the test with HL-60. Further, the GI50 in the test on MCF7, in the test with MDA-MB-231, in the test with MDA-N, in the test with Malme-3M, in the test with OVCAR-3 and in the test with OVCAR-4 was > 100 µM (inactive) each time. Further, the GI50 in the test on OVCAR-8, in the test on SF-268, in the test with SF-295, with SF-539, with SN12C and with SNB-19 was > 100 µM (inactive) each time. For the same molecule, the GI50 in the test with U-251 was > 100 µM (inactive).

Take `[O-][S+]1c2ccc(Cl)cc2CC(SSC2Cc3cc(Cl)ccc3[S+]([O-])c3ccccc32)c2ccccc21` (stereo not given): the GI50 in the test on ACHN, with EKVX, with HCC 2998, with HCT-116, with HL-60 and in the test on LXFL 529 was > 100 µM (inactive) in each case. The GI50 in the test with Malme-3M, with OVCAR-3, in the test with OVCAR-4, in the test on OVCAR-8, in the test on SF-268 and in the test with SF-295 was > 100 µM (inactive) in each case. The GI50 with SF-539, with SN12C, in the test on SNB-19 and with U-251 was > 100 µM (inactive) each time.

In the case of `CCN(CC)CCO/N=C1\CC[C@H]2[C@@H]3CCc4cc(OC)ccc4[C@H]3CC[C@]12C`, the GI50 in the test with A498 is 3.18 µM (inactive); with ACHN it was 3.57 µM (inactive); in the test on EKVX, 3.16 µM (inactive); in the test with HCC 2998 it was 1.71 µM (inactive); in the test with HCT-116, 1.44 µM (inactive); with HL-60, 0.885 µM (active). For the same molecule, the GI50 was 3.66 µM (inactive) with MCF7; 3.37 µM (inactive) in the test on MDA-MB-231; 1.75 µM (inactive) in the test with MDA-N; 1.82 µM (inactive) in the test with Malme-3M; 4.25 µM (inactive) in the test with OVCAR-3; 9.08 µM (inactive) in the test with OVCAR-4. Further, the GI50 is 2.6 µM (inactive) in the test on OVCAR-8; 2.07 µM (inactive) with SF-268; 1.83 µM (inactive) with SF-295; 1.97 µM (inactive) with SF-539; 3.03 µM (inactive) in the test with SN12C; 8.38 µM (inactive) in the test on SNB-19. Also, the GI50 in the test with U-251 is 2.59 µM (inactive).
